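Briefly, cells in 96-well plates were exposed to five compound concentrations for 48 h, and endpoints were estimated by linear interpolation. TGI denotes the concentration required for complete inhibition of growth.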 Where a SMILES comes first, the peptide text is derived from it.
Columns and labels:
Assay in all cases: inhibition of tumour cell growth, NCI panel, 48 h
[1] = system: SF-539 CNS
[2] = system: MALME-3M melanoma
[3] = system: MDA-MB-231 breast
[4] = system: SK-OV-3 ovarian
[5] = system: MDA-N
[6] = system: NCI-H460 lung
[7] = system: TK-10 renal
[8] = system: SR leukemia
[9] = system: T-47D breast
[10] = system: MDA-MB-435
[11] = system: NCI/ADR-RES ovarian

How did the TGI [1] turn out when `Cc1cn(C2CCN(CC3COC(C)(C)O3)O2)c(=O)[nH]c1=O` (stereo unspecified) was run?
Its TGI is greater than 100 µM.

What about the TGI [2] of the same molecule?
Its TGI is greater than 100 µM.

And the TGI [3]?
Its TGI is greater than 100 µM.

What about the TGI [4] of the same molecule?
The TGI was greater than 100 µM.

What about the TGI [5] of the same molecule?
The TGI was greater than 100 µM.

And the TGI [6]?
The TGI was greater than 100 µM.

What about the TGI [7] of the same molecule?
The TGI was greater than 100 µM.

And the TGI [8]?
Its TGI is greater than 100 µM.

And the TGI [9]?
The TGI was greater than 100 µM.

What about the TGI [10] of the same molecule?
Its TGI is greater than 100 µM.

What about the TGI [11] of the same molecule?
The TGI was greater than 100 µM.

What does the source list for `CC(=O)Nc1cc2nc3n(c2cc1C)CCC3OC(C)=O` (stereo unspecified)?
TGI [1]: > 100 µM; TGI [2]: > 100 µM; TGI [3]: > 100 µM; TGI [4]: > 100 µM; TGI [5]: > 100 µM; TGI [6]: > 100 µM; TGI [8]: > 100 µM; TGI [9]: > 100 µM; TGI [10]: > 100 µM; TGI [11]: > 100 µM

Which TGI [2] does the source give for `C=CC1(c2ccc3ccccc3c2)OCC(CC)O1` (stereo unspecified) here?
Its TGI is 93.2 µM.

And the TGI [3]?
The TGI was 0.469 µM.

And the TGI [4]?
Its TGI is greater than 100 µM.

What about the TGI [5] of the same molecule?
The TGI was greater than 100 µM.

And the TGI [6]?
Its TGI is greater than 100 µM.

And the TGI [7]?
Its TGI is greater than 100 µM.

What about the TGI [8] of the same molecule?
Its TGI is 61.4 µM.

And the TGI [9]?
The TGI was greater than 100 µM.

And the TGI [10]?
The TGI was greater than 100 µM.

What about the TGI [11] of the same molecule?
The TGI was greater than 100 µM.

`O=C(CN=C(CN(c1ccccc1)c1ccccc1)Oc1ccc(Cl)cc1Cl)n1ccnc1` was tested. Which TGI [1] did it give?
The TGI was greater than 100 µM.

What about the TGI [2] of the same molecule?
Its TGI is greater than 100 µM.

What about the TGI [3] of the same molecule?
The TGI was greater than 100 µM.

And the TGI [4]?
Its TGI is greater than 100 µM.

What about the TGI [5] of the same molecule?
The TGI was greater than 100 µM.

What about the TGI [6] of the same molecule?
The TGI was greater than 100 µM.

And the TGI [7]?
The TGI was greater than 100 µM.

And the TGI [8]?
The TGI was greater than 100 µM.

What about the TGI [9] of the same molecule?
The TGI was greater than 100 µM.

And the TGI [10]?
The TGI was greater than 100 µM.

And the TGI [11]?
The TGI was greater than 100 µM.

With `CCC(C)C(NC(=O)C(CC(C)C)NC(=O)CNC(=O)C(NC(=O)C1CCCN1C(=O)C(CC(C)C)NC(=O)C(N)Cc1ccccc1)C(C)CC)C(=O)NC(CC(C)C)C(N)=O` (stereo unspecified) (H-FLPIGLIL-NH2; configuration not given here) as the molecule, how does the TGI [1] read?
Its TGI is greater than 75 µM.

What about the TGI [2] of the same molecule?
The TGI was greater than 75 µM.

And the TGI [3]?
Its TGI is greater than 75 µM.

What about the TGI [4] of the same molecule?
The TGI was greater than 75 µM.

What about the TGI [5] of the same molecule?
The TGI was greater than 75 µM.

What about the TGI [7] of the same molecule?
Its TGI is greater than 75 µM.

And the TGI [8]?
The TGI was greater than 75 µM.

And the TGI [9]?
Its TGI is greater than 75 µM.

And the TGI [10]?
Its TGI is greater than 75 µM.

What about the TGI [11] of the same molecule?
The TGI was greater than 75 µM.

Which TGI [1] does the source give for `CC(C)Cn1cnc2c(Cl)nc3ccccc3c21` here?
Its TGI is greater than 100 µM.

What about the TGI [2] of the same molecule?
Its TGI is greater than 100 µM.

And the TGI [3]?
The TGI was greater than 100 µM.

And the TGI [4]?
Its TGI is greater than 100 µM.

What about the TGI [5] of the same molecule?
The TGI was greater than 100 µM.

What about the TGI [6] of the same molecule?
The TGI was greater than 100 µM.

And the TGI [7]?
The TGI was greater than 100 µM.

What about the TGI [8] of the same molecule?
Its TGI is 66.6 µM.

And the TGI [9]?
The TGI was greater than 100 µM.

And the TGI [10]?
The TGI was greater than 100 µM.

What about the TGI [11] of the same molecule?
The TGI was greater than 100 µM.

With `Cn1cc(-c2nnc(-c3ccc(Cl)cc3)[nH]c2=O)c2ccccc21` as the molecule, how does the TGI [2] read?
Its TGI is greater than 25.8 µM.

What about the TGI [3] of the same molecule?
The TGI was greater than 84.9 µM.

What about the TGI [4] of the same molecule?
Its TGI is greater than 69.8 µM.

What about the TGI [5] of the same molecule?
Its TGI is 1.83 µM.

What about the TGI [6] of the same molecule?
The TGI was greater than 44.1 µM.

What about the TGI [7] of the same molecule?
The TGI was 42.7 µM.

What about the TGI [8] of the same molecule?
The TGI was greater than 100 µM.

What about the TGI [9] of the same molecule?
The TGI was greater than 100 µM.

What about the TGI [10] of the same molecule?
Its TGI is 1.4 µM.

What about the TGI [11] of the same molecule?
The TGI was 8.03 µM.

With `CCCCCCCCCCOCCOCCOCCOCCCCC(O)CCCCCCCC1=C[C@H](C)OC1=O` (stereo partly specified) as the molecule, how does the TGI [1] read?
Its TGI is 24.5 µM.

What about the TGI [2] of the same molecule?
The TGI was 46.3 µM.

What about the TGI [3] of the same molecule?
The TGI was 30.8 µM.

And the TGI [4]?
Its TGI is 41.4 µM.

What about the TGI [5] of the same molecule?
The TGI was 24.3 µM.

And the TGI [6]?
Its TGI is 22 µM.

And the TGI [7]?
Its TGI is 21.4 µM.

What about the TGI [8] of the same molecule?
The TGI was 19.6 µM.

What about the TGI [9] of the same molecule?
The TGI was 75 µM.

And the TGI [10]?
The TGI was 28.2 µM.

What about the TGI [11] of the same molecule?
Its TGI is 41 µM.

What does the source list for `CC(C(=O)n1ccnc1)N1c2ccccc2Sc2ccccc21` (stereo unspecified)?
TGI [1]: > 100 µM; TGI [2]: > 100 µM; TGI [3]: > 100 µM; TGI [4]: > 100 µM; TGI [5]: > 100 µM; TGI [6]: > 100 µM; TGI [7]: > 100 µM; TGI [8]: > 100 µM; TGI [9]: > 100 µM; TGI [10]: > 100 µM; TGI [11]: > 100 µM

Which results are given for `O=[N+]([O-])/C(Cl)=C/C(=C1/Nc2ccccc2O1)[N+](=O)[O-]`?
TGI [1]: 59.4 µM; TGI [2]: 29.8 µM; TGI [3]: 76.4 µM; TGI [4]: 75.7 µM; TGI [5]: 46 µM; TGI [6]: 81 µM; TGI [7]: > 100 µM; TGI [8]: 47.1 µM; TGI [9]: > 100 µM; TGI [10]: 32 µM; TGI [11]: 73.2 µM

Which TGI [1] does the source give for `CCOC(=O)c1sc2nc1CSc1sc(=S)sc1SCc1nc(sc1C(=O)OCC)-c1nc(c(C(=O)OCC)s1)CSc1sc(=S)sc1SCc1nc-2sc1C(=O)OCC` here?
The TGI was greater than 10 µM.

And the TGI [2]?
Its TGI is greater than 10 µM.

And the TGI [3]?
The TGI was greater than 10 µM.

What about the TGI [4] of the same molecule?
Its TGI is greater than 10 µM.

What about the TGI [5] of the same molecule?
The TGI was greater than 10 µM.

What about the TGI [6] of the same molecule?
The TGI was greater than 10 µM.

And the TGI [7]?
The TGI was greater than 10 µM.

What about the TGI [8] of the same molecule?
Its TGI is greater than 10 µM.

What about the TGI [9] of the same molecule?
The TGI was greater than 10 µM.

What about the TGI [10] of the same molecule?
Its TGI is greater than 10 µM.

And the TGI [11]?
Its TGI is greater than 10 µM.

Which results are given for `O=S(=O)(CCC[C@H]1[C@@H](CCOCc2ccccc2)C2CCCN1O2)c1ccccc1` (stereo partly specified)?
TGI [1]: > 100 µM; TGI [2]: > 100 µM; TGI [3]: > 100 µM; TGI [4]: > 100 µM; TGI [5]: > 100 µM; TGI [6]: > 100 µM; TGI [7]: > 100 µM; TGI [8]: > 100 µM; TGI [9]: > 100 µM; TGI [10]: > 100 µM; TGI [11]: > 100 µM

What does the source list for `C(#CC1(Nc2ccccc2)CCN(Cc2ccccc2)CC1)C1(Nc2ccccc2)CCN(Cc2ccccc2)CC1`?
TGI [1]: 34.9 µM; TGI [2]: > 65.6 µM; TGI [3]: 42.8 µM; TGI [4]: 13.1 µM; TGI [5]: > 56.2 µM; TGI [6]: > 46.4 µM; TGI [7]: 39.4 µM; TGI [8]: > 24.8 µM; TGI [9]: > 100 µM; TGI [10]: > 100 µM; TGI [11]: > 100 µM

How did the TGI [1] turn out when `COC(=O)/N=[N+](\[O-])C(c1ccccc1)c1ccccc1` was run?
Its TGI is greater than 100 µM.

What about the TGI [2] of the same molecule?
The TGI was greater than 100 µM.

What about the TGI [3] of the same molecule?
Its TGI is greater than 100 µM.

What about the TGI [4] of the same molecule?
Its TGI is greater than 100 µM.

And the TGI [5]?
Its TGI is greater than 100 µM.

What about the TGI [6] of the same molecule?
Its TGI is greater than 100 µM.

What about the TGI [7] of the same molecule?
The TGI was greater than 100 µM.

And the TGI [8]?
The TGI was greater than 100 µM.

And the TGI [9]?
Its TGI is greater than 100 µM.

And the TGI [10]?
The TGI was greater than 100 µM.

What about the TGI [11] of the same molecule?
The TGI was greater than 100 µM.

How did the TGI [1] turn out when `O=CN1CCC23CC(O)CCC2C1Cc1cc(Oc2nnnn2-c2ccccc2)cc(O)c13` (stereo unspecified) was run?
Its TGI is greater than 100 µM.

And the TGI [2]?
The TGI was greater than 100 µM.

And the TGI [3]?
Its TGI is greater than 100 µM.

And the TGI [4]?
The TGI was greater than 100 µM.

What about the TGI [5] of the same molecule?
The TGI was greater than 100 µM.

What about the TGI [6] of the same molecule?
The TGI was greater than 100 µM.

What about the TGI [7] of the same molecule?
The TGI was greater than 100 µM.

And the TGI [8]?
Its TGI is greater than 100 µM.

What about the TGI [9] of the same molecule?
Its TGI is greater than 100 µM.

What about the TGI [10] of the same molecule?
The TGI was greater than 100 µM.

What about the TGI [11] of the same molecule?
The TGI was greater than 100 µM.

With `S=C1CC(c2ccccc2)Sc2cc(Cl)ccc2N1` (stereo unspecified) as the molecule, how does the TGI [2] read?
Its TGI is 93.6 µM.

And the TGI [3]?
Its TGI is 20.7 µM.

What about the TGI [4] of the same molecule?
Its TGI is 19.9 µM.

What about the TGI [5] of the same molecule?
Its TGI is 39.6 µM.

And the TGI [6]?
The TGI was 22.8 µM.

And the TGI [7]?
The TGI was 38.9 µM.

What about the TGI [8] of the same molecule?
The TGI was 83.7 µM.

And the TGI [9]?
The TGI was greater than 100 µM.

And the TGI [10]?
Its TGI is 30 µM.

What about the TGI [11] of the same molecule?
The TGI was 30.5 µM.

— PubChem BioAssay (NCI)
